From ChEMBL document CHEMBL6120975 (2024)
Calls of active or inactive are those of the source. The calls are words filed in the database; no cut-off is given here. Where a SMILES comes first, the peptide text is derived from it. [ ]: non-standard residue; d: D form. The star is where a group is joined. X3 = NCCOCCOCCOCCOCCOCCOCCOCCOCCCC(=O)*; Stearoyl = CCCCCCCCCCCCCCCCCC(=O)*; Palmitoyl = CCCCCCCCCCCCCCCC(=O)*; X1 = NCCOCCOCCOCCOCCOCCOCCCC(=O)*; X2 = NCCOCCOCCOCCOCCCC(=O)*; Sar = CNCC(=O)O

Assays:
[1] = Stability in human serum measured upto 24 hrs; assay type: ADME, cell-free
[2] = target: T1, Neuronal acetylcholine receptor; alpha9/alpha10 (Homo sapiens) (UniProt Q9UGM1+Q9GZZ6); experiment: Inhibition of human alpha9alpha10 nAChR expressed in acetylcholine-induced Xenopus laevis oocytes assessed as inhibition of acetylcholine-induced current at 30 nM incubated for 5 mins by two electrode voltage-clamp assay; assay type: cell-based; settings: Oocyte
[3] = target: T2, Voltage-dependent N-type calcium channel subunit alpha-1B (Homo sapiens, UniProt Q00975); experiment: Inhibition of human eGFP tagged Cav2.2 channel transfected in HEK293T cells co-expressed with human GABAB receptor assessed as inhibition of Cav2.2-mediated Ba2+ current at 1 uM by whole-cell patch clamp assay; assay type: cell-based
Target sequence in this assay (Q00975 whole entry, looked up): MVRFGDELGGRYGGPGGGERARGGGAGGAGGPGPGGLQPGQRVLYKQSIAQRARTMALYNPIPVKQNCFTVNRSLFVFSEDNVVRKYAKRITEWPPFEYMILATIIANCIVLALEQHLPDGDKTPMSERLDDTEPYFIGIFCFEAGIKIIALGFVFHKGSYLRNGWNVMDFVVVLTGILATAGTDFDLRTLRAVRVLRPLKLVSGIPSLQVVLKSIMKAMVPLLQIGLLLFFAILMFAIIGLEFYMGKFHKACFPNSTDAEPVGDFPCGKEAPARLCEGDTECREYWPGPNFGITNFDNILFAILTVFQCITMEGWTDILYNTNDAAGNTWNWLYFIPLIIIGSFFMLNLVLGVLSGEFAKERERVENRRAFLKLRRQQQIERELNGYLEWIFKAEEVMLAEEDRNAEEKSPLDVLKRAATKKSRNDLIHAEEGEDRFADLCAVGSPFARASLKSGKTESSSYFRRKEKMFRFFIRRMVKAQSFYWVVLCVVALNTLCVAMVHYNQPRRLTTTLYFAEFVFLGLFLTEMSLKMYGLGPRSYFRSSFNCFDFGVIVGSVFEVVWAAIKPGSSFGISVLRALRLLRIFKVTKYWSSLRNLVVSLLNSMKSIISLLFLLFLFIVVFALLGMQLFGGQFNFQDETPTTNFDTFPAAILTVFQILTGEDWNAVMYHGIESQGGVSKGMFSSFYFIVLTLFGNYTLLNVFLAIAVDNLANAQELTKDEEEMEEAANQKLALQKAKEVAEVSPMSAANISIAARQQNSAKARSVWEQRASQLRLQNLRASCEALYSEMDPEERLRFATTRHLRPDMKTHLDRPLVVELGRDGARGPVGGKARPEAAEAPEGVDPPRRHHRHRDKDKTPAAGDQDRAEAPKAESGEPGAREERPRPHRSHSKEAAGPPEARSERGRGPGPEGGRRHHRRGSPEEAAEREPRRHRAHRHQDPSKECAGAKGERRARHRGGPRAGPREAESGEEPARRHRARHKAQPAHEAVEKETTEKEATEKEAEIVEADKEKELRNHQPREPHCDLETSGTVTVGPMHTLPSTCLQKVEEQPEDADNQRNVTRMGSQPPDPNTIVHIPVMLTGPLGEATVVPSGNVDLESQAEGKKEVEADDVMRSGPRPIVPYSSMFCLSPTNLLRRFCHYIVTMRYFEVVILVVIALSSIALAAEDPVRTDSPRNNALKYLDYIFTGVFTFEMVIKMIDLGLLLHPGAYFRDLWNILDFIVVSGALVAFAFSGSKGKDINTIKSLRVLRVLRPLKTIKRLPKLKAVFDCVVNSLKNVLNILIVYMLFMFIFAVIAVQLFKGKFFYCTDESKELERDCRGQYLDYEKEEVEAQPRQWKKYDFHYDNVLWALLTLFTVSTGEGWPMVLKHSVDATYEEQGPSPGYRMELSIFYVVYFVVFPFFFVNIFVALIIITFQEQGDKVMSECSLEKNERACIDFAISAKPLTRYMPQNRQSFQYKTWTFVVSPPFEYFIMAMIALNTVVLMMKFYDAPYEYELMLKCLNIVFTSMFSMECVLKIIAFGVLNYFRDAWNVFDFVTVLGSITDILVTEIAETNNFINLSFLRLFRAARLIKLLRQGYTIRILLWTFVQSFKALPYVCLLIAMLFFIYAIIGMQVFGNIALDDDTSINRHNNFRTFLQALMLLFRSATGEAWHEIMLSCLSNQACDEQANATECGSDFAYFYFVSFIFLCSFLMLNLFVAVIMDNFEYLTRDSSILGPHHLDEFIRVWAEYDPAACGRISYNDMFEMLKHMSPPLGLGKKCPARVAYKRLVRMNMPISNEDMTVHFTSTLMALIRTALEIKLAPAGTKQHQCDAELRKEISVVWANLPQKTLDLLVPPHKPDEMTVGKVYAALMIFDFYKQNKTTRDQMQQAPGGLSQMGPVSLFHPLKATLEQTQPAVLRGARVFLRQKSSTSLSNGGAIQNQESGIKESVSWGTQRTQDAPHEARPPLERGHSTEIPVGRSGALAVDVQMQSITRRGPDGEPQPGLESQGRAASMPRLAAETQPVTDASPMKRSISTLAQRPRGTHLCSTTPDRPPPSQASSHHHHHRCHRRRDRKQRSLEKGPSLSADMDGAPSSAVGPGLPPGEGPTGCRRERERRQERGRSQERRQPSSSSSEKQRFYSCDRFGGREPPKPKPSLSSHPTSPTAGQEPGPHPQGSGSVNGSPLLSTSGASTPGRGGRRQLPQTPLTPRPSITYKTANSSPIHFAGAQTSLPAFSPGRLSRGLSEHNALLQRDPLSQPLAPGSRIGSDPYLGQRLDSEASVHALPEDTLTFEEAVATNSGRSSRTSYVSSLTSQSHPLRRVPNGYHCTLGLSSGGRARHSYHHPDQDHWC

[4] = target: T2, Voltage-dependent N-type calcium channel subunit alpha-1B; experiment: Inhibition of human eGFP tagged Cav2.2 channel transfected in HEK293T cells co-expressed with human GABAB receptor assessed as inhibition of Cav2.2-mediated Ba2+ current at 100 uM by whole-cell patch clamp assay; assay type: cell-based
Target sequence in this assay (Q00975 whole entry, looked up): as above

[5] = Stability in human plasma assessed as half life; assay type: ADME, cell-free
[6] = Stability in human serum assessed as parent compound remaining measured after 24 hrs; assay type: ADME, cell-free
[7] = target: Neuronal acetylcholine receptor; alpha9/alpha10 (Homo sapiens, UniProt Q9GZZ6+Q9UGM1); experiment: Inhibition of human alpha9alpha10 nAChR expressed in acetylcholine-induced Xenopus laevis oocytes assessed as inhibition of acetylcholine-induced current incubated for 5 mins by two electrode voltage-clamp assay; assay type: cell-based, Oocyte
Rattus norvegicus [8] = experiment: Antinociceptive activity in Chronic constriction injury rat model assessed as reduction in pain at 250 microg/kg, IM administration and measured after 2 hrs; assay type: functional, organism-based; settings: dose 250.0 µg/kg
[9] = target: Neuronal acetylcholine receptor subunit alpha-7 (Homo sapiens, UniProt P36544); experiment: Inhibition of human alpha7 nAChR expressed in acetylcholine-induced Xenopus laevis oocytes assessed as inhibition of acetylcholine-induced current incubated for 5 mins by two electrode voltage-clamp assay; assay type: cell-based, Oocyte
[10] = target: T2, Voltage-dependent N-type calcium channel subunit alpha-1B; experiment: Inhibition of human eGFP tagged Cav2.2 channel transfected in HEK293T cells co-expressed with human GABAB receptor assessed as inhibition of Cav2.2-mediated Ba2+ current by whole-cell patch clamp assay; assay type: cell-based
Target sequence in this assay (Q00975 whole entry): as the sequence (Q00975 whole entry, looked up) above

[11] = target: T2, Voltage-dependent N-type calcium channel subunit alpha-1B; experiment: Inhibition of human eGFP tagged Cav2.2 channel transfected in HEK293T cells co-expressed with human GABAB receptor assessed as inhibition of Cav2.2-mediated Ba2+ current at 100 uM by whole-cell patch clamp assay relative to control; assay type: cell-based
Target sequence in this assay (Q00975 whole entry, looked up): as above

[12] = target: Neuronal acetylcholine receptor; alpha3/beta4 (Homo sapiens) (UniProt P30926+P32297); experiment: Inhibition of human alpha3beta4 nAChR expressed in acetylcholine-induced Xenopus laevis oocytes assessed as inhibition of acetylcholine-induced current at 100 nM incubated for 5 mins by two electrode voltage-clamp assay; assay type: cell-based; settings: Oocyte
[13] = target: Neuronal acetylcholine receptor; alpha3/beta2 (Homo sapiens) (UniProt P17787+P32297); experiment: Inhibition of human alpha3beta2 nAChR expressed in acetylcholine-induced Xenopus laevis oocytes assessed as inhibition of acetylcholine-induced current at 100 nM incubated for 5 mins by two electrode voltage-clamp assay; assay type: cell-based; settings: Oocyte
[14] = target: Neuronal acetylcholine receptor; alpha4/beta4 (Homo sapiens) (UniProt P30926+P43681); experiment: Inhibition of human alpha4beta4 nAChR expressed in acetylcholine-induced Xenopus laevis oocytes assessed as inhibition of acetylcholine-induced current at 100 nM incubated for 5 mins by two electrode voltage-clamp assay; assay type: cell-based; settings: Oocyte
[15] = target: T1, Neuronal acetylcholine receptor; alpha9/alpha10 (Homo sapiens); experiment: Inhibition of human alpha9alpha10 nAChR expressed in acetylcholine-induced Xenopus laevis oocytes assessed as inhibition of acetylcholine-induced current at 100 nM incubated for 5 mins by two electrode voltage-clamp assay; assay type: cell-based; settings: Oocyte
[16] = target: Neuronal acetylcholine receptor; alpha4/beta2 (Homo sapiens) (UniProt P17787+P43681); experiment: Inhibition of human alpha4beta2 nAChR expressed in acetylcholine-induced Xenopus laevis oocytes assessed as inhibition of acetylcholine-induced current at 100 nM incubated for 5 mins by two electrode voltage-clamp assay; assay type: cell-based; settings: Oocyte
Rattus norvegicus [17] = experiment: Antinociception activity in Oxaliplatin-induced cold allodynia in rat model assessed as analgesic effect at 250 microg/kg, sc measured after 1 hr; assay type: functional, organism-based; settings: dose 250.0 µg/kg
Rattus norvegicus [18] = experiment: Antinociception activity in Oxaliplatin-induced cold allodynia in rat model assessed as analgesic effect at 250 microg/kg, sc measured after 4 to 8 hr; assay type: functional, organism-based; settings: dose 250.0 µg/kg, time 4-8 hrs
Rattus norvegicus [19] = experiment: Antinociception activity in Oxaliplatin-induced cold allodynia in rat model assessed as analgesic effect at 250 microg/kg, iv measured after 1 to 12 hr; assay type: functional, organism-based; settings: dose 250.0 µg/kg, time 1-12 hrs

Sequence of Neuronal acetylcholine receptor; alpha9/alpha10 (Q9UGM1 whole entry): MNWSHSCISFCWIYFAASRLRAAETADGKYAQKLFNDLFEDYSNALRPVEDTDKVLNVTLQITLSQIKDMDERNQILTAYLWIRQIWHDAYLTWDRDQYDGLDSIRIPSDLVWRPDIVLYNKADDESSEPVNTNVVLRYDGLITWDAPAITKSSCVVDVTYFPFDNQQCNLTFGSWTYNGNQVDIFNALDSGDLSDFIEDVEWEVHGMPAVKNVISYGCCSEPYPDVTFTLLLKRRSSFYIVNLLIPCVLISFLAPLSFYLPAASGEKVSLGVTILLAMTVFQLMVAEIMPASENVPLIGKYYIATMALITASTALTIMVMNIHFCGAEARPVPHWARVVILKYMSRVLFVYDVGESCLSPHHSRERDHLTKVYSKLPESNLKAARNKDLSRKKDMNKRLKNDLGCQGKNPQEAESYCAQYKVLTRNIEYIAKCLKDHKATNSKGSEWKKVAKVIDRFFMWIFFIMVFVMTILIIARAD
Sequence of Neuronal acetylcholine receptor; alpha9/alpha10 (Q9GZZ6 whole entry): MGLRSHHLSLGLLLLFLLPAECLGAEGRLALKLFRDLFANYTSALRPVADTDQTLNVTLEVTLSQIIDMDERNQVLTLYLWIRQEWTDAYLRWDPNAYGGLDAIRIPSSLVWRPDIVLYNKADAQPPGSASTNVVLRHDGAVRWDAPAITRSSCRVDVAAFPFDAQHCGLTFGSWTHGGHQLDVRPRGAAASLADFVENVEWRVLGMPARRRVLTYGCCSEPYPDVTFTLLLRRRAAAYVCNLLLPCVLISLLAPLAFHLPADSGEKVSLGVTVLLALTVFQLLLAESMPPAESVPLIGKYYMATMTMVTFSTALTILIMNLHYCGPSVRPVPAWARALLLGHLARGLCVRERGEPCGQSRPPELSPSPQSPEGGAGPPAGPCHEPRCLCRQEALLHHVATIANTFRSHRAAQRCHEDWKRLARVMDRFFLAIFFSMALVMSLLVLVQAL
Sequence of Neuronal acetylcholine receptor subunit alpha-7 (P36544 whole entry): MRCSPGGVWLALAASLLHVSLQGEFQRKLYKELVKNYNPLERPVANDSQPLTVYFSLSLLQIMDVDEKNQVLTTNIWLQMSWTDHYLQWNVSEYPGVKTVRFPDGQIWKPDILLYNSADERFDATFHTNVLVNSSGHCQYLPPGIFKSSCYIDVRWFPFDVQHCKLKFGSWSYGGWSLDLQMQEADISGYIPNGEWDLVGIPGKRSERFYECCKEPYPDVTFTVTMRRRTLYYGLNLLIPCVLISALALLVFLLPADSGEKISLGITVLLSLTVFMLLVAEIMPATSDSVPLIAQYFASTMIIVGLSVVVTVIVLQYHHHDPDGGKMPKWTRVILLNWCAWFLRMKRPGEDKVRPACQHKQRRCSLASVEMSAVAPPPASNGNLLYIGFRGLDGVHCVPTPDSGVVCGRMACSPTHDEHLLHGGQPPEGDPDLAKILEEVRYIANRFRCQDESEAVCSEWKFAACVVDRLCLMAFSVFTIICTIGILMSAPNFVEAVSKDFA

Compound: CCCCCCCCCCCCCCCC(=O)NCC(=O)N[C@@H](CCCNC(=N)N)C(=O)N[C@@H](Cc1ccc(O)cc1)C(=O)N[C@@H](CCCNC(=N)N)C(=O)N[C@@H](CO)C(=O)N1CCC[C@H]1C(=O)N[C@@H](Cc1ccc(O)cc1)C(=O)N[C@@H](CC(=O)O)C(=O)N[C@@H](CCCNC(=N)N)C(=O)N[C@@H](CCCNC(=N)N)C(=O)N[C@@H](CCCNC(=N)N)C(=O)N[C@@H](CCCNC(=N)N)C(=O)N[C@@H](Cc1ccc(O)cc1)C(=O)N[C@@H](CCCNC(=N)N)C(=O)N[C@@H](CCCNC(=N)N)C(=O)N[C@H](C(=O)N[C@H](C(=O)N[C@@H](CC(=O)O)C(N)=O)[C@@H](C)O)[C@@H](C)CC (Palmitoyl-GRYRSPYDRRRRYRRITD-NH2)
- Stability [1]: Stable
- inhibition [2]: inactive
- inhibition [3]: Active; Compound Showed Weak Inhibitory Activity
- inhibition [4]: Active; Compound Showed Minimal Activity

Compound: H-GRYRSPYDRRRRYRRITD-NH2
- half-life [5]: < 30 min

Compound: CC[C@H](C)[C@H](NC(=O)[C@H](CCCNC(=N)N)NC(=O)[C@H](CCCNC(=N)N)NC(=O)[C@H](Cc1ccc(O)cc1)NC(=O)[C@H](CCCNC(=N)N)NC(=O)[C@H](CCCNC(=N)N)NC(=O)[C@H](CCCNC(=N)N)NC(=O)[C@H](CCCNC(=N)N)NC(=O)[C@H](CC(=O)O)NC(=O)[C@H](Cc1ccc(O)cc1)NC(=O)[C@@H]1CCCN1C(=O)[C@H](CO)NC(=O)[C@H](CCCNC(=N)N)NC(=O)[C@H](Cc1ccc(O)cc1)NC(=O)[C@H](CCCNC(=N)N)NC(=O)CNC(=O)CCCOCCOCCOCCOCCOCCOCCOCCOCCN)C(=O)N[C@H](C(=O)N[C@@H](CC(=O)O)C(N)=O)[C@@H](C)O (X3-GRYRSPYDRRRRYRRITD-NH2)
- remaining at 24 h [6]: > 80%
- inhibition [2]: Active
- inhibition [3]: Active; Compound Showed Weak Inhibitory Activity
- IC50 [7]: 11.8 nM
- Activity (Rattus norvegicus [8]): inactive
- inhibition [4]: Active; Compound Showed Minimal Activity

Compound: CC[C@H](C)[C@H](NC(=O)[C@H](CCCNC(=N)N)NC(=O)[C@H](CCCNC(=N)N)NC(=O)[C@H](Cc1ccc(O)cc1)NC(=O)[C@H](CCCNC(=N)N)NC(=O)[C@H](CCCNC(=N)N)NC(=O)[C@H](CCCNC(=N)N)NC(=O)[C@H](CCCNC(=N)N)NC(=O)[C@H](CC(=O)O)NC(=O)[C@H](Cc1ccc(O)cc1)NC(=O)[C@@H]1CCCN1C(=O)[C@H](CO)NC(=O)[C@H](CCCNC(=N)N)NC(=O)[C@H](Cc1ccc(O)cc1)NC(=O)[C@H](CCCNC(=N)N)NC(=O)CNC(=O)CCCOCCOCCOCCOCCN)C(=O)N[C@H](C(=O)N[C@@H](CC(=O)O)C(N)=O)[C@@H](C)O (X2-GRYRSPYDRRRRYRRITD-NH2)
- remaining at 24 h [6]: > 80%
- inhibition [2]: Active
- inhibition [3]: Active; Compound Showed Weak Inhibitory Activity
- IC50 [7]: 7.8 nM
- Activity (Rattus norvegicus [8]): inactive
- inhibition [4]: Active; Compound Showed Minimal Activity

Compound: CC[C@H](C)[C@H](NC(=O)[C@H](CCCNC(=N)N)NC(=O)[C@H](CCCNC(=N)N)NC(=O)[C@H](Cc1ccc(O)cc1)NC(=O)[C@H](CCCNC(=N)N)NC(=O)[C@H](CCCNC(=N)N)NC(=O)[C@H](CCCNC(=N)N)NC(=O)[C@H](CCCNC(=N)N)NC(=O)[C@H](CC(=O)O)NC(=O)[C@H](Cc1ccc(O)cc1)NC(=O)[C@@H]1CCCN1C(=O)[C@H](CO)NC(=O)[C@H](CCCNC(=N)N)NC(=O)[C@H](Cc1ccc(O)cc1)NC(=O)[C@H](CCCNC(=N)N)NC(=O)CNC(=O)CCCOCCOCCOCCOCCOCCOCCN)C(=O)N[C@H](C(=O)N[C@@H](CC(=O)O)C(N)=O)[C@@H](C)O (X1-GRYRSPYDRRRRYRRITD-NH2)
- remaining at 24 h [6]: > 80%
- inhibition [2]: Active
- inhibition [3]: Active; Compound Showed Weak Inhibitory Activity
- IC50 [7]: 15.9 nM
- Activity (Rattus norvegicus [8]): inactive
- inhibition [4]: Active; Compound Showed Minimal Activity

Compound: CCCCCCCCCCCCCCCCCC(=O)NCC(=O)N[C@@H](CCCNC(=N)N)C(=O)N[C@@H](Cc1ccc(O)cc1)C(=O)N[C@@H](CCCNC(=N)N)C(=O)N[C@@H](CO)C(=O)N1CCC[C@H]1C(=O)N[C@@H](Cc1ccc(O)cc1)C(=O)N[C@@H](CC(=O)O)C(=O)N[C@@H](CCCNC(=N)N)C(=O)N[C@@H](CCCNC(=N)N)C(=O)N[C@@H](CCCNC(=N)N)C(=O)N[C@@H](CCCNC(=N)N)C(=O)N[C@@H](Cc1ccc(O)cc1)C(=O)N[C@@H](CCCNC(=N)N)C(=O)N[C@@H](CCCNC(=N)N)C(=O)N[C@H](C(=O)N[C@H](C(=O)N[C@@H](CC(=O)O)C(N)=O)[C@@H](C)O)[C@@H](C)CC (Stearoyl-GRYRSPYDRRRRYRRITD-NH2)
- Stability [1]: Stable
- inhibition [2]: inactive
- inhibition [3]: Active; Compound Showed Weak Inhibitory Activity
- inhibition [4]: Active; Compound Showed Minimal Activity

Compound: CC[C@H](C)[C@H](NC(=O)[C@H](CCCNC(=N)N)NC(=O)[C@H](CCCNC(=N)N)NC(=O)[C@H](Cc1ccc(O)cc1)NC(=O)[C@H](CCCNC(=N)N)NC(=O)[C@H](CCCNC(=N)N)NC(=O)[C@H](CCCNC(=N)N)NC(=O)[C@H](CCCNC(=N)N)NC(=O)[C@H](CC(=O)O)NC(=O)[C@H](Cc1ccc(O)cc1)NC(=O)[C@@H]1CCCN1C(=O)[C@H](CO)NC(=O)[C@H](CCCNC(=N)N)NC(=O)[C@H](Cc1ccc(O)cc1)NC(=O)[C@H](CCCNC(=N)N)NC(=O)CNC)C(=O)N[C@H](C(=O)N[C@@H](CC(=O)O)C(N)=O)[C@@H](C)O (H-[Sar]RYRSPYDRRRRYRRITD-NH2)
- inhibition [2]: Active
- IC50 [7]: 14.2 nM
- IC50 [9]: 121 nM
- IC50 [10]: 7800 nM
- inhibition [11]: 100%
- inhibition [12]: inactive
- inhibition [13]: inactive
- inhibition [14]: inactive
- inhibition [15]: inactive
- inhibition [16]: Active
- Activity (Rattus norvegicus [17]): inactive
- Activity (Rattus norvegicus [18]): Active
- Activity (Rattus norvegicus [19]): Active
